Assay results from PubChem BioAssay (NCI).
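Exposure lasted 48 hours, with cells grown in 96-well plates and compounds tested at five concentrations. At the GI50, growth is halved. TGI is the concentration that stops growth completely.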

Tests used:
Test in all cases: NCI tumour cell line growth inhibition, 48 h
T-47D breast = tested on: T-47D breast
KM12 colon = tested on: KM12 colon
SF-295 CNS = tested on: SF-295 CNS
SK-MEL-5 melanoma = tested on: SK-MEL-5 melanoma
SNB-19 CNS = tested on: SNB-19 CNS
HL-60(TB) leukemia = tested on: HL-60(TB) leukemia
A549 NSCLC = tested on: A549 NSCLC
UO-31 renal = tested on: UO-31 renal
NCI-H460 lung = tested on: NCI-H460 lung
MDA-MB-231 breast = tested on: MDA-MB-231 breast
SW-620 colon = tested on: SW-620 colon
UACC-257 melanoma = tested on: UACC-257 melanoma
SK-OV-3 ovarian = tested on: SK-OV-3 ovarian
NCI-H23 lung = tested on: NCI-H23 lung
SNB-75 CNS = tested on: SNB-75 CNS
EKVX NSCLC = tested on: EKVX NSCLC
HOP-92 NSCLC = tested on: HOP-92 NSCLC
A498 renal = tested on: A498 renal
NCI-H226 lung = tested on: NCI-H226 lung
CCRF-CEM leukemia = tested on: CCRF-CEM leukemia
HT29 colon = tested on: HT29 colon
NCI-H522 lung = tested on: NCI-H522 lung
DU-145 prostate = tested on: DU-145 prostate
PC-3 prostate = tested on: PC-3 prostate
OVCAR-4 ovarian = tested on: OVCAR-4 ovarian
NCI/ADR-RES ovarian = tested on: NCI/ADR-RES ovarian
SK-MEL-2 melanoma = tested on: SK-MEL-2 melanoma
SF-539 CNS = tested on: SF-539 CNS
CAKI-1 renal = tested on: CAKI-1 renal
OVCAR-5 ovarian = tested on: OVCAR-5 ovarian
COLO 205 colon = tested on: COLO 205 colon
U251 CNS = tested on: U251 CNS
RPMI-8226 leukemia = tested on: RPMI-8226 leukemia
IGROV1 ovarian = tested on: IGROV1 ovarian
HS 578T breast = tested on: HS 578T breast
MDA-MB-435 = tested on: MDA-MB-435
MALME-3M melanoma = tested on: MALME-3M melanoma
ACHN renal = tested on: ACHN renal
UACC-62 melanoma = tested on: UACC-62 melanoma
RXF 393 renal = tested on: RXF 393 renal
SK-MEL-28 melanoma = tested on: SK-MEL-28 melanoma
M14 melanoma = tested on: M14 melanoma
SR leukemia = tested on: SR leukemia
SN12C renal = tested on: SN12C renal
OVCAR-3 ovarian = tested on: OVCAR-3 ovarian
SF-268 CNS = tested on: SF-268 CNS
HCT-116 colon = tested on: HCT-116 colon
HOP-62 NSCLC = tested on: HOP-62 NSCLC
HCT-15 colon = tested on: HCT-15 colon
786-0 renal = tested on: 786-0 renal
TK-10 renal = tested on: TK-10 renal
LOX IMVI melanoma = tested on: LOX IMVI melanoma
HCC-2998 colon = tested on: HCC-2998 colon
MOLT-4 leukemia = tested on: MOLT-4 leukemia
MCF7 breast = tested on: MCF7 breast
OVCAR-8 ovarian = tested on: OVCAR-8 ovarian
K-562 leukemia = tested on: K-562 leukemia
BT-549 breast = tested on: BT-549 breast

C=C1C(=O)O[C@H]2[C@H]1CC/C(COC(=O)NCc1ccc(OC)cc1)=C\CC[C@@]1(C)O[C@@H]21 gave a GI50 (T-47D breast) of 757 nM, a TGI (T-47D breast) of 2910 nM and a GI50 (KM12 colon) of 4750 nM. It also gave a TGI (KM12 colon) of 20500 nM, a GI50 (SF-295 CNS) of 11100 nM and a TGI (SF-295 CNS) of 25000 nM. It also gave a GI50 (SK-MEL-5 melanoma) of 2850 nM, a TGI (SK-MEL-5 melanoma) of 17200 nM and a GI50 (SNB-19 CNS) of 3010 nM. For the same compound, the TGI (SNB-19 CNS) was 11000 nM, the GI50 (HL-60(TB) leukemia) was 813 nM and the TGI (HL-60(TB) leukemia) was 2100 nM. For the same compound, the GI50 (A549 NSCLC) was 4280 nM, the TGI (A549 NSCLC) was 19200 nM and the GI50 (UO-31 renal) was 501 nM. For the same compound, the TGI (UO-31 renal) was 991 nM, the GI50 (NCI-H460 lung) was 3160 nM and the TGI (NCI-H460 lung) was 18200 nM. It also gave a GI50 (MDA-MB-231 breast) of 1170 nM, a TGI (MDA-MB-231 breast) of 3960 nM and a GI50 (SW-620 colon) of 635 nM. For the same compound, the TGI (SW-620 colon) was 1550 nM, the GI50 (UACC-257 melanoma) was 766 nM and the TGI (UACC-257 melanoma) was 2550 nM. It also gave a GI50 (SK-OV-3 ovarian) of 14600 nM, a TGI (SK-OV-3 ovarian) of 29300 nM and a GI50 (NCI-H23 lung) of 1450 nM. The TGI (NCI-H23 lung) was 7960 nM, the GI50 (SNB-75 CNS) was 1000 nM and the TGI (SNB-75 CNS) was 15300 nM. It also gave a GI50 (EKVX NSCLC) of 3930 nM, a TGI (EKVX NSCLC) of 17400 nM and a GI50 (HOP-92 NSCLC) of 559 nM. It also gave a TGI (HOP-92 NSCLC) of 1830 nM, a GI50 (A498 renal) of 2920 nM and a TGI (A498 renal) of 20000 nM. The GI50 (NCI-H226 lung) was 1100 nM, the TGI (NCI-H226 lung) was 5010 nM and the GI50 (CCRF-CEM leukemia) was 378 nM. It also gave a TGI (CCRF-CEM leukemia) of 2100 nM, a GI50 (HT29 colon) of 835 nM and a TGI (HT29 colon) of 2780 nM. For the same compound, the GI50 (NCI-H522 lung) was 378 nM, the TGI (NCI-H522 lung) was 1150 nM and the GI50 (DU-145 prostate) was 726 nM. It also gave a TGI (DU-145 prostate) of 2950 nM, a GI50 (PC-3 prostate) of 2610 nM and a TGI (PC-3 prostate) of 14300 nM. It also gave a GI50 (OVCAR-4 ovarian) of 992 nM, a TGI (OVCAR-4 ovarian) of 13500 nM and a GI50 (NCI/ADR-RES ovarian) of 2690 nM. The TGI (NCI/ADR-RES ovarian) was 21600 nM, the GI50 (SK-MEL-2 melanoma) was 3040 nM and the TGI (SK-MEL-2 melanoma) was 10400 nM. For the same compound, the GI50 (SF-539 CNS) was 973 nM, the TGI (SF-539 CNS) was 3650 nM and the GI50 (CAKI-1 renal) was 628 nM. The TGI (CAKI-1 renal) was 2080 nM, the GI50 (OVCAR-5 ovarian) was 2160 nM and the TGI (OVCAR-5 ovarian) was 8530 nM. It also gave a GI50 (COLO 205 colon) of 656 nM, a TGI (COLO 205 colon) of 1550 nM and a GI50 (U251 CNS) of 2650 nM. The TGI (U251 CNS) was 16200 nM, the GI50 (RPMI-8226 leukemia) was 683 nM and the TGI (RPMI-8226 leukemia) was 2300 nM. It also gave a GI50 (IGROV1 ovarian) of 783 nM, a TGI (IGROV1 ovarian) of 2790 nM and a GI50 (HS 578T breast) of 3100 nM. For the same compound, the TGI (HS 578T breast) was 30700 nM, the GI50 (MDA-MB-435) was 805 nM and the TGI (MDA-MB-435) was 2620 nM. For the same compound, the GI50 (MALME-3M melanoma) was 554 nM, the TGI (MALME-3M melanoma) was 1290 nM and the GI50 (ACHN renal) was 580 nM. The TGI (ACHN renal) was 1490 nM, the GI50 (UACC-62 melanoma) was 1590 nM and the TGI (UACC-62 melanoma) was 3160 nM. The GI50 (RXF 393 renal) was 509 nM, the TGI (RXF 393 renal) was 1070 nM and the GI50 (SK-MEL-28 melanoma) was 726 nM. For the same compound, the TGI (SK-MEL-28 melanoma) was 1700 nM, the GI50 (M14 melanoma) was 520 nM and the TGI (M14 melanoma) was 1140 nM. It also gave a GI50 (SR leukemia) of 656 nM, a TGI (SR leukemia) of 3840 nM and a GI50 (SN12C renal) of 3400 nM. For the same compound, the TGI (SN12C renal) was 12400 nM, the GI50 (OVCAR-3 ovarian) was 595 nM and the TGI (OVCAR-3 ovarian) was 1530 nM. It also gave a GI50 (SF-268 CNS) of 1720 nM, a TGI (SF-268 CNS) of 13400 nM and a GI50 (HCT-116 colon) of 471 nM. The TGI (HCT-116 colon) was 1020 nM, the GI50 (HOP-62 NSCLC) was 7980 nM and the TGI (HOP-62 NSCLC) was 24100 nM. It also gave a GI50 (HCT-15 colon) of 570 nM, a TGI (HCT-15 colon) of 1870 nM and a GI50 (786-0 renal) of 700 nM. It also gave a TGI (786-0 renal) of 1670 nM, a GI50 (TK-10 renal) of 359 nM and a TGI (TK-10 renal) of 1510 nM. For the same compound, the GI50 (LOX IMVI melanoma) was 405 nM, the TGI (LOX IMVI melanoma) was 1470 nM and the GI50 (HCC-2998 colon) was 1750 nM. The TGI (HCC-2998 colon) was 6670 nM, the GI50 (MOLT-4 leukemia) was 843 nM and the TGI (MOLT-4 leukemia) was 2310 nM. It also gave a GI50 (MCF7 breast) of 1310 nM, a TGI (MCF7 breast) of 5450 nM and a GI50 (OVCAR-8 ovarian) of 1230 nM. For the same compound, the TGI (OVCAR-8 ovarian) was 9270 nM, the GI50 (K-562 leukemia) was 897 nM and the TGI (K-562 leukemia) was 9080 nM. For the same compound, the GI50 (BT-549 breast) was 696 nM and the TGI (BT-549 breast) was 2070 nM.
